Data on 2 compounds can be found in patent US7632862B2, “Pharmaceutical compositions that modulate HPTPbeta activity” (Procter & Gamble Company, priority 2002, dated 2009).

The test system of test [1] is panel of recombinant phosphatases. The test is described as follows: Selectivity against a panel of recombinant phosphatases. Particulars: all panel phosphatases except the closely related HPTPeta. In kind it is biochemical. The method, then: FIG. 10. Compound 1 ((R)-[1-Methylcarbamoyl-2-(4-sulfoamino-phenyl)-ethyl]-carbamic acid tert-butyl ester) is a selective HPTPbeta inhibitor. Compound 1 was assayed for inhibition of a panel of recombinant phosphatases essentially as described in Example 2 for HPTPbeta. This compound was at least 10 fold selective for HPTPbeta over the other phosphatases tested except for the closely related HPTPeta.
Methods: The potency of a class of HPTPbeta inhibitors was optimized by iterative screening for inhibition of HPTPbeta activity measured as described in Example 2. […] To determine selectivity, compound 1 was tested against a panel of several other recombinant phosphatases (FIG. 10). VEGFR2 and Tie-2 receptor activation was assayed as mentioned in example 4. However, to assess the effect of the HPTPbeta inhibitor, the cells were pretreated for 30 minutes prior to stimulation with either 0.1 mM or 1 mM Compound 1 in Opti-MEM media (Invitrogen) at 37° C./5% CO2. Results: A potent and selective HPTPbeta inhibitor (Compound 1) was developed (see Example 11) as an agent to enhance the activation of VEGFR2 and Tie2 (FIG. 10). Compound was at least 10 fold selective for HPTPbeta versus the any of the other phosphatases except for the closely related HPTPeta. […] Clearly, these assays could be used to optimize the potency and selectivity and to test the efficacy of other HPTPbeta inhibitors.

Test [2] deals with Human umbilical vein endothelial cells (HUVEC). The experiment in a line: Endothelial cell survival (CellTiter-Glo). The class given is cell-based. To be noted: 500 μM compound. As for the experimental part:
Methods: Human umbilical vein endothelial cells (HUVEC, Clonetics) were seeded at 10,000/well in a 96-well plate for 2 hours in EGM media (Clonetics). The cells were then serum-deprived for 2 hours in DMEM (Invitrogen) supplemented with 0.2% bovine serum albumin. Quadruplicate wells were then treated with either vehicle or 500 μM Compound in the presence or absence of either 500 pM recombinant human VEGF165 or 250 ng/mL recombinant human Angiopoietin-1 (Ang-1) (R&D Systems) for 72 hours in DMEM supplemented with 0.2% bovine serum albumin. Cells remaining after incubation were detected using the CellTiter-Glo™ System according to the manufacturers instructions (Promega) and measured using a Victor V plate reader (Perkin Elmer/Wallac).
Background: In ATP-based viability assays light output follows the ATP content of the culture.

Test [3] relates to Rat thoracic aortic rings. The experiment in a line: Rat aortic ring explant angiogenesis assay. To be noted: 100 μM and 300 μM; p<0.05 vs control. As for the experimental part:
Methods: The isolated rat aortic ring model of angiogenesis is performed using the thoracic aorta from 150-175 gram, male Sprague-Dawley rats (Charles River). The excised thoracic aorta is placed in sterile saline solution and transferred to endothelial basal media (EBM, Clonetics) containing 1% antibiotics/antimycotic (Gibco BRL). Periadventitial fibroadipose tissue and any visible blood clots were removed. Aortas are cross-sectioned at ˜1 mm intervals and the resulting tissues placed in 100 μl of Dulbecco's Modified Eagle Medium (DMEM) containing 2% FBS, in the presence or absence of adenovirus for green fluorescent protein, empty virus or HPTPbeta (all at 1.0×10^11 virus particles/ml), as described. Rings are incubated for 30 minutes at 37° C. in a humidified incubator under a constant 5% CO2 atmosphere. Following adenoviral infection, aortic rings were washed with EBM and placed in a 24-well tissue culture plate. Aortic rings are overlaid with 450 μl of collagen solution consisting of 8 volumes of 3 mg/ml rat tail collagen (Sigma) in 0.1% acetic acid, 1 volume of 10× M-199 supplemented with 100 mg/ml L-glutamine, and 1 volume of 10× collagen buffer (0.0SN NaOH, 200 mM HEPES, 260 mM NaHCO3). […] Images (TIFF) are taken using a SPOT camera connected to a Nikon inverted microscope and analyzed (vessel extent and area) using automated image analysis software. […]

Test [4] has as its system VEGFR2. The test is described as follows: Ligand-induced VEGFR2 phosphorylation in endothelial cells (anti-phosphotyrosine western blot). In kind it is cell-based, human. Particulars: endothelial cells pretreated 30 minutes with 0.1 mM or 1 mM; vs vehicle; p<0.05. As for the experimental part: (§1) VEGFR2 and Tie-2 receptor phosphorylation is assayed by anti-phosphotyrosine western blotting following immunoprecipitation of the receptors from endothelial cells or receptor transfected 293 cells. Briefly, endothelial cells (HUVEC's) are plated on 100 mm dishes, stimulated with a dose range of either recombinant VEGF165 or recombinant Angiopoietin-1 (R&D Systems, resuspended in PBS containing 0.2% bovine serum albumin) for 5 or 7 minutes, respectively. […] Signal is detected using HRP labeled secondary antibodies and ECL solution (Amersham). […] Resulting films are scanned and quantitated using Quantity-One software (Bio-Rad) and results reported as the amount of phosphotyrosine signal over receptor signal (P-Tyr/Receptor).
(§2) Transfection in HUVEC's is performed with the above-mentioned antisense oligos at a 200 nM final concentration using LIPOFECTIN™ (Invitrogen), a reagent for transfectin of endothelial cells and transfection of DNA or RNA into cell lines, in OPTIMEM™-I (Gibco), a modification of Eagles Minimum Essential Medium, buffered with HEPES and sodium bicarbonate (2.4 g/L) and supplemented with hypoxanthine, thymidine, sodium pyruvate, L-glutamine, trace elements, and growth factors, according to the manufacturers instructions. […] Uptake efficiency is monitored in every transfection using a fluorescently labeled oligonucleotide and determined to be >90% in every experiment.” […]
In general terms: In western blotting, separated proteins are transferred to a membrane and probed.

Test [5] deals with Tie-2. The test is described as follows: Ligand-induced Tie-2 phosphorylation in endothelial cells (anti-phosphotyrosine western blot). The class given is cell-based, human. Particulars: endothelial cells pretreated 30 minutes with 0.1 mM or 1 mM; vs vehicle; p<0.05. As for the experimental part:
as §1, §2

Test [6] concerns the target T1, HPTPbeta (Homo sapiens, UniProt P23467).
T1 construct: GST (N, cleaved yes); His6 (C); made in house; host or cells: E. coli BL21-RIL
The test is described as follows: Inhibition of recombinant HPTPbeta phosphatase activity (DiFMUP substrate). The class given is biochemical. To be noted: assay as in Example 2. The method, then: Methods: Expression and purification of recombinant HPTPbeta catalytic domain [SEQ ID NO: 16] is accomplished by subcloning the intracellular domain of HPTPbeta (cDNA clone starting at the codon for amino acid 1662 through the stop codon) into the pGEX4T1 vector (Pharmacia) and expressed as a GST-fusion protein in E. coli BL21-RIL cells (Stratagene). Induced cells are thawed on ice and resuspended in 20 mM Tris-HCl, pH=8.0, 1% Trition x-100, 2 mM DTT and EDTA-free protease inhibitor cocktail. 10 mg/ml lysozyme is added and cells are lysed by sonication. The cell debris is pelleted using the Beckman J2-MI at 17,000 rpm. The supernatant is added to prepared glutathione sepharose 4B resin batch method. After binding, the column is poured and packed with the resin/protein mixture and then washed. […]
Measurements of recombinant phosphatase activity are performed using the substrate DiFMUP (6,8-difluoro-4-methylumbelliferyl phosphate) from Molecular Probes. […] Measurements of increased substrate fluorescence, indicative of phosphatase activity, are observed at an excitation wavelength of 355 nm and an emission wavelength of 460 nm using a Victor V plate reader (Wallac).
Methods: The potency of a class of HPTPbeta inhibitors was optimized by iterative screening for inhibition of HPTPbeta activity measured as described in Example 2. […]

Test [7] relates to HUVEC. The test is described as follows: In-cell phosphatase activity (DiFMUP) in HPTPbeta adenovirus infected HUVECs. In kind it is cell-based, human. To be noted: 500 μM. As for the experimental part: In cell phosphatase assays are accomplished by infecting Human Umbilical Vein Endothelial Cells with HPTPbeta, GFP, or Empty adenovirus in 100 mm dishes for 24 hours. Infected cells were trypsinized and re-plated at 5,000 cells/well in a 96 well plate and allowed to attach for 2 hours in complete growth medium (EGM). Complete medium was replaced with Hanks Buffered Saline (HBSS, Gibco) and substrate fluorescence are measured 15 minutes after the addition of 100 uM DiFMUP substrate (Molecular Probes) using a Victor V plate reader as mentioned in Example 2.

Test [8] concerns HEK293H cells. The test is described as follows: In-cell phosphatase activity (DiFMUP) in HPTPbeta-transfected HEK293H cells. Particulars: 500 μM, 15 minutes pre-incubation. The class given is cell-based, human. The method, then:
For phosphatase activity in human embryonic kidney cells, HEK293H (Gibco) are grown in suspension in 293SFM media (Gibco) and transfected on 100 mm dishes using LIPOFECTAMINE™ 2000 (Invitrogen), a proprietary formulation for the transfection of nucleic acids (DNA and RNA) into eukaryotic cells. After 24 hours cells are resuspended transferred back to shaker flasks for an additional 24 hours. Phosphatase activity is measured using DiFMUP in 96 well plates as above with 100,000 cells/well. For inhibition of tyrosine phosphatases, the cells are pre-incubated with Bis-maloalto-organovanadium (BMOV) for 15 minutes prior to the addition of DIFMUP. HPTPbeta protein expression is confirmed after each experiment in parallel plates by western blotting.

T1 sequence (P23467 with tags, fused parts or gaps): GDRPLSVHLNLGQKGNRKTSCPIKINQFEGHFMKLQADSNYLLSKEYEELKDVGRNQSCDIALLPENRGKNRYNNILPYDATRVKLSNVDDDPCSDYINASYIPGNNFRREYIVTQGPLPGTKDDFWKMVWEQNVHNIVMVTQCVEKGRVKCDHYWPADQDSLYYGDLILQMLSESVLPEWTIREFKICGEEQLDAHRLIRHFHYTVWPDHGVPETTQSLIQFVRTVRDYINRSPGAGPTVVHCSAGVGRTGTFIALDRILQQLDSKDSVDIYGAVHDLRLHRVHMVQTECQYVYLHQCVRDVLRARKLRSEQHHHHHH

On to `CNC(=O)C(Cc1ccc(NS(=O)(=O)O)cc1)NC(=O)OC(C)(C)C` (stereo in doubt) [Compound 1, (R)-[1-Methylcarbamoyl-2-(4-sulfoamino-phenyl)-ethyl]-carbamic acid tert-butyl ester], for which, in test [1], the “selectivity for HPTPbeta over the other phosphatases tested” value is recorded as “at least 10 fold”. The “cell survival with VEGF165 stimulation” value in test [2] (500 pM VEGF165, 72 hours, vs vehicle) is recorded as “increased cell survival”. In test [2] (250 ng/mL Ang-1, 72 hours, vs vehicle), the “cell survival with Ang-1 stimulation” value is on record as “increased cell survival”. In test [2] (no ligand, vs untreated controls), the basal cell survival result is given as “increased basal levels of survival”. Further, in test [3], the vessel area result is “significant increases” and the vessel extent result is “significant increases”. Besides, the “ligand stimulated tyrosine phosphorylation of VEGFR2” value in test [4] was “increased”. In addition, the “ligand stimulated tyrosine phosphorylation of Tie-2” value in test [5] is “increased”. In addition, the “potency of inhibition of HPTPbeta activity” value in test [6] is “nanomolar”.
In the case of `Cc1occc(=O)c1[O-].Cc1occc(=O)c1[O-].[O]=[V+2]` [BMOV, Bis-maloalto-organovanadium], the “phosphatase activity in HUVEC's” value in test [7] is given as “inhibited”. Moreover, the “phosphatase activity in HEK293H cells” value in test [8] is “inhibited”.
